Results on 18 compounds are retold here after US11006626B2, “Compounds for protection of cells” (Sulfateq B.V., priority 2012, dated 2021).

This assay concerns Human Embryo Kidney (HEK) 293 cells. The experiment in a line: Hypothermia/rewarming injury of HEK cells, trypan blue viability count. It is filed as cell-based. Conditions: for viability at 0.01 µM / viability at 0.1 µM / viability at 1 µM / viability at 10 µM / viability at 100 µM / viability at 1000 µM: Homo sapiens, read-out: % cells that survived; for viability at 0.01 µM / viability at 0.1 µM / viability at 1 µM / viability at 10 µM / viability at 100 µM / viability at 1000 µM / % cells that survived: 24 h at 4° C., 24 h rewarming; for viability at 0.1 µM: 100 nM; for % cells that survived, Mean: mean over the tested concentrations.

Where two headings read alike, the source gives them in different places.

Method: Human Embryo Kidney (HEK) 293 cells were cultured in DMEM cell culture medium (Life Technologies, 41965-052) supplemented with fetal calf serum, penicillin and streptomycin. Cells were seeded at a density of 0.8-1.2E6 mL-1 in 25 cm2 polystyrene flasks, placed in a 37° C.
The compounds were dissolved in dimethyl sulfoxide (DMSO) to several concentrations. Before commencing experiments, this stock solution was dissolved in pre-warmed DMEM and further diluted to obtain a concentration range from 10 nM-1 mM. Cell culture medium was then replaced by these dilutions and cells were incubated in the presence of the compound for 1 hour. After incubation, lids were closed tightly and flasks were placed in a 4° C. room and cooled for 24 hours. After this cooling period, cells were placed back in the 37° C. incubator with lids closed and were allowed to rewarm for another 24 hours.
After this rewarming period, microscopic images were taken to assess cell morphology (Nikon D5100, Nikon Diaphot-TMD). Cell culture medium was collected and centrifuged (4 minutes, 2000 rpm). The supernatant was collected and pH was immediately measured to prevent equilibration of the pH by the carbonate buffer in the medium, while the pelleted cells were resuspended in 5 mL of PBS. Cells remaining in the flask were washed twice with phosphate buffered saline (PBS) while the washing product was discarded. Subsequently, the cells were trypsinized by addition of 0.5 mL of trypsine and pooled with the resuspended pellet. This cell suspension was then stained at a final concentration of 0.2% trypan blue (Sigma, T8154), followed by manual assessment of viability and cell number on a Bürker-Türk hemocytometer. To conclude the assay, cell culture medium glucose levels were measured (Roche Accutrend Plus) as an indication of metabolic activity. All of these steps were performed with care to prevent mechanical stress to influence or alter the viability of the cells after cooling.
The amount represents the % cells that survived. […] In the control, the same procedure was applied to two badges of HEK cells.

For `Cc1c(C)c2c(c(C)c1O)CCC(C)(C(=O)NCCBr)O2` (stereo not shown) [SUL - 114, N-(2-bromoethyl)-6-hydroxy-2,5,7,8-tetramethylchroman-2-carboxamide], the “% cells that survived, Mean” value stood at 71%. Besides, under “HEK293, 10 nM”, the viability at 0.01 µM was determined as 81.1%. For the same compound, for the setting “HEK293”, the viability at 0.1 µM was determined as 87.2%, the viability at 1 µM worked out at 89.9%, the viability at 10 µM stood at 87.7% and the viability at 100 µM worked out at 77.9%. Moreover, under “HEK293, 1 mM”, the viability at 1000 µM was 0%.
Turning to `Cc1c(C)c2c(c(C)c1O)CCC(C)(C(=O)N[C@H](CO)c1ccccc1)O2` (stereo partly drawn) [SUL - 98, 6-hydroxy-N-((S)-2-hydroxy-1-phenylethyl)-2,5,7,8-tetramethylchroman-2-carboxamide], the “% cells that survived, Mean” value is listed as 75%. For the same compound, where the note is “HEK293, 24 h”, the viability at 0.1 µM is 91%, the viability at 1 µM came out at 97.8%, the viability at 10 µM was found to be 97.5% and the viability at 100 µM worked out at 88.5%. The viability at 1000 µM (HEK293, 24 h, 1 mM) was 1.02%.
With `Cc1c(C)c2c(c(C)c1O)CCC(C)(CN1CCC[C@H]1CO)O2` (stereo partly drawn) [SUL - 128, 2-(((S)-2-(hydroxymethyl)pyrrolidin-1-yl)methyl)-2,5,7,8-tetramethylchroman-6-ol], the “% cells that survived, Mean” value was found to be 71%. For the same compound, the “% cells that survived” value (10 nM) amounted to 28.21%. Under “1 mM”, the “% cells that survived” value turned out to be 0.00%. Moreover, for the setting “HEK293, 24 h”, the viability at 0.1 µM stood at 100%, the viability at 1 µM turned out to be 100%, the viability at 10 µM came to 100% and the viability at 100 µM turned out to be 99.4%.
On to `Cc1c(C)c2c(c(C)c1O)CC[C@](C)(C(=O)O)O2` [SUL - 85, (R)-6-hydroxy-2,5,7,8-tetramethylchroman-2-carboxylic acid], for which the “% cells that survived, Mean” value is recorded as 33%. Besides, for the setting “HEK293, 24 h”, the viability at 0.1 µM is 1.23%, the viability at 1 µM is 0%, the viability at 10 µM stood at 1.43% and the viability at 100 µM came out at 84.9%. Moreover, the viability at 1000 µM (HEK293, 24 h, 1 mM) is 78.3%.
Consider `Cc1c(C)c2c(c(C)c1O)CCC(C)(C(=O)NCCC#N)O2` (stereo not shown) [SUL - 123, N-(2-cyanoethyl)-6-hydroxy-2,5,7,8-tetramethylchroman-2-carboxamide], for which the “% cells that survived, Mean” value turned out to be 70%. Besides, the viability at 0.01 µM (HEK293, 24 h, 10 nM) was 68.4%. Further, for the setting “HEK293, 24 h”, the viability at 0.1 µM is 90.5%, the viability at 1 µM stood at 83.2%, the viability at 10 µM is 88.4% and the viability at 100 µM was determined as 88.2%. The viability at 1000 µM (HEK293, 24 h, 1 mM) was 0.75%.
`Cc1c(C)c2c(c(C)c1O)CCC(C)(C(=O)N1CCC[C@H]1CO)O2` (stereo partly drawn) [SUL - 112, (6-hydroxy-2,5,7,8-tetramethylchroman-2-yl)((S)-2-(hydroxymethyl)pyrrolidin-1-yl)methanone]: the “% cells that survived, Mean” value was found to be 79%. For the same compound, for the setting “HEK293, 24 h, 10 nM”, the viability at 0.01 µM was 96.3%. Moreover, under “HEK293, 24 h”, the viability at 0.1 µM is 96.5%, the viability at 1 µM is 95.4%, the viability at 10 µM turned out to be 93% and the viability at 100 µM came to 93.1%. The viability at 1000 µM (HEK293, 24 h, 1 mM) worked out at 0%.
For `Cc1c(C)c2c(c(C)c1O)CCC(C)(C(=O)NC(C)C)O2` (stereo not shown) [SUL - 92, 6-hydroxy-N-isopropyl-2,5,7,8-tetramethylchroman-2-carboxamide], the “% cells that survived, Mean” value came out at 49%. For the setting “HEK293, 24 h”, the viability at 0.1 µM was 3.13%, the viability at 1 µM stood at 64.6%, the viability at 10 µM worked out at 87.1% and the viability at 100 µM was 86.5%. For the same compound, the viability at 1000 µM (HEK293, 24 h, 1 mM) was 1.55%.
As to `Cc1c(C)c2c(c(C)c1O)CCC(C)(CN1CCCCC1)O2` (stereo not shown) [SUL - 130, 2,5,7,8-tetramethyl-2-(piperidin-1-ylmethyl)chroman-6-ol], the “% cells that survived, Mean” value is listed as 46%. For the same compound, the viability at 0.01 µM (HEK293, 24 h, 10 nM) amounted to 0%. Under “HEK293, 24 h”, the viability at 0.1 µM was found to be 12.7%, the viability at 1 µM was found to be 85.7%, the viability at 10 µM stood at 89.6% and the viability at 100 µM stood at 86.5%. Besides, the viability at 1000 µM (HEK293, 24 h, 1 mM) came out at 1.49%.
Turning to `Cc1c(C)c2c(c(C)c1O)CCC(C)(C(=O)NO)O2` (stereo not shown) [SUL - 90, N,6-dihydroxy-2,5,7,8-tetramethylchroman-2-carboxamide], the “% cells that survived, Mean” value is 58%. In addition, for the setting “HEK293, 24 h”, the viability at 0.1 µM is 8.67%, the viability at 1 µM worked out at 91.3%, the viability at 10 µM was determined as 90.2% and the viability at 100 µM was determined as 77.9%. The viability at 1000 µM (HEK293, 24 h, 1 mM) was 20.4%.
Turning to `COC(=O)c1ccc(NC(=O)C2(C)CCc3c(C)c(O)c(C)c(C)c3O2)cc1` (stereo not shown) [SUL - 107, methyl 4-(6-hydroxy-2,5,7,8-tetramethylchroman-2-carboxamido)benzoate], the “% cells that survived, Mean” value amounted to 59%. Besides, the viability at 0.01 µM (HEK293, 24 h, 10 nM) turned out to be 4.42%. Also, where the note is “HEK293, 24 h”, the viability at 0.1 µM was found to be 95.7%, the viability at 1 µM amounted to 92.7%, the viability at 10 µM came out at 94.8% and the viability at 100 µM worked out at 37.6%. Moreover, the viability at 1000 µM (HEK293, 24 h, 1 mM) came to 28.9%.
On to `Cc1c(C)c2c(c(C)c1O)CCC(C)(C(=O)N1CCN(CCOCCO)CC1)O2` (stereo not shown) [SUL - 122, (6-hydroxy-2,5,7,8-tetramethylchroman-2-yl)(4-(2-(2-hydroxyethoxy)ethyl)piperazin-1-yl)methanone], for which the “% cells that survived, Mean” value came to 57%. Where the note is “HEK293, 24 h, 10 nM”, the viability at 0.01 µM turned out to be 5.15%. For the same compound, where the note is “HEK293, 24 h”, the viability at 0.1 µM turned out to be 22.5%, the viability at 1 µM was 85.6%, the viability at 10 µM is 85.2% and the viability at 100 µM worked out at 88.5%. Besides, the viability at 1000 µM (HEK293, 24 h, 1 mM) was 55.6%.
As to `CC(C)=CCC/C(C)=C/CNC(=O)C1(C)CCc2c(C)c(O)c(C)c(C)c2O1` (stereo not shown) [SUL - 93, (E)-N-(3,7-dimethylocta-2,6-dien-1-yl)-6-hydroxy-2,5,7,8-tetramethylchroman-2-carboxamide], the “% cells that survived, Mean” value came out at 61%. For the same compound, under “HEK293, 24 h”, the viability at 0.1 µM worked out at 97%, the viability at 1 µM came to 96.1%, the viability at 10 µM was found to be 84% and the viability at 100 µM worked out at 21.7%. Moreover, the viability at 1000 µM (HEK293, 24 h, 1 mM) was found to be 8%.
For `Cc1c(C)c2c(c(C)c1O)CCC(C)(C(=O)NCc1ccc(F)cc1)O2` (stereo not shown) [SUL - 97, N-(4-fluorobenzyl)-6-hydroxy-2,5,7,8-tetramethylchroman-2-carboxamide], the “% cells that survived, Mean” value stood at 58%. Also, under “HEK293, 24 h”, the viability at 0.1 µM turned out to be 0%, the viability at 1 µM was determined as 95.1%, the viability at 10 µM was 96.4% and the viability at 100 µM was determined as 91.6%. For the same compound, the viability at 1000 µM (HEK293, 24 h, 1 mM) turned out to be 5.17%.
On to `Cc1c(C)c2c(c(C)c1O)CCC(C)(C(N)=O)O2` (stereo not shown) [SUL - 89, 6-hydroxy-2,5,7,8-tetramethylchroman-2-carboxamide], for which the “% cells that survived, Mean” value was found to be 76%. Besides, under “HEK293, 24 h”, the viability at 0.1 µM is 34.9%, the viability at 1 µM was 88.6%, the viability at 10 µM was 91.6% and the viability at 100 µM was 87.6%.
Regarding `CCOC(=O)CN1CCN(C(=O)C2(C)CCc3c(C)c(O)c(C)c(C)c3O2)CC1` (stereo not shown) [SUL - 140, ethyl 2-(4-(6-hydroxy-2,5,7,8-tetramethylchroman-2-carbonyl)piperazin-1-yl)acetate], the “% cells that survived, Mean” value came out at 52%. Further, the viability at 0.01 µM (HEK293, 24 h, 10 nM) came out at 8.7%. In addition, under “HEK293, 24 h”, the viability at 0.1 µM came out at 17.9%, the viability at 1 µM came to 95.7%, the viability at 10 µM amounted to 97% and the viability at 100 µM came out at 94.6%. Moreover, the viability at 1000 µM (HEK293, 24 h, 1 mM) was determined as 0%.
As for `COC(=O)C1(C)CCc2c(c(C)c(C(C)C)c(O)c2C(C)C)O1` (stereo not shown) [SUL - 146, methyl 6-hydroxy-5,7-diisopropyl-2,8-dimethylchroman-2-carboxylate], the “% cells that survived, Mean” value is on record as 46%. Also, the viability at 0.01 µM (HEK293, 24 h, 10 nM) was 0.96%. Under “HEK293, 24 h”, the viability at 0.1 µM turned out to be 17%, the viability at 1 µM is 90.6%, the viability at 10 µM was determined as 80.7% and the viability at 100 µM came out at 85.5%. The viability at 1000 µM (HEK293, 24 h, 1 mM) was 0%.
As to `CCCCN1CCN(C(=O)C2(C)CCc3c(C)c(O)c(C)c(C)c3O2)CC1` (stereo not shown) [SUL - 108, (4-butylpiperazin-1-yl)(6-hydroxy-2,5,7,8-tetramethylchroman-2-yl)methanone], the “% cells that survived, Mean” value was found to be 55%. The viability at 0.01 µM (HEK293, 24 h, 10 nM) was determined as 0%. Under “HEK293, 24 h”, the viability at 0.1 µM was 40.9%, the viability at 1 µM stood at 94.2%, the viability at 10 µM is 96.8% and the viability at 100 µM turned out to be 96.6%. Moreover, for the setting “HEK293, 24 h, 1 mM”, the viability at 1000 µM came out at 0%.
For `Cc1c(C)c2c(c(C)c1O)CCC(C)(CN[C@H](CO)c1ccccc1)O2` (stereo partly drawn) [SUL - 129, 2-((((S)-2-hydroxy-1-phenylethyl)amino)methyl)-2,5,7,8-tetramethylchroman-6-ol], the “% cells that survived, Mean” value is listed as 46%. Besides, the viability at 0.01 µM (HEK293, 24 h, 10 nM) was found to be 0%. Further, under “HEK293, 24 h”, the viability at 0.1 µM worked out at 5.65%, the viability at 1 µM amounted to 88.8%, the viability at 10 µM amounted to 89.9% and the viability at 100 µM was 91.5%. Also, the viability at 1000 µM (HEK293, 24 h, 1 mM) stood at 0%.
